The target in test [1] is T1, TbPTP1 (Trypanosoma brucei, UniProt Q38AT7).
T1 sequence (Q38AT7 1-306): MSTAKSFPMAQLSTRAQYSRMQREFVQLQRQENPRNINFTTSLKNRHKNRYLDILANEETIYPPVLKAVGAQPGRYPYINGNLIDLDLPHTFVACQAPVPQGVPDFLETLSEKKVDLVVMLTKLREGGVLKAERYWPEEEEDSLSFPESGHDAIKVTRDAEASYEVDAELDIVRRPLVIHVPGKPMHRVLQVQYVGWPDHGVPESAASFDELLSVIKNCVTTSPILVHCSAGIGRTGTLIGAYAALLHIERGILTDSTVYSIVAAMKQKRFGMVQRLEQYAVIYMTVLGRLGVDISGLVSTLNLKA
The following applies: pNPP or pEGFR peptide as substrate.

The target in test [2] is T1, TbPTP1. The test can be described thus: pNPP hydrolysis inhibition. It counts as biochemical. The following applies: read-out: % inhibition at 10 μM.
Test [3] addresses T1, TbPTP1. The test can be described thus: malachite green phosphate release, Lineweaver-Burk. The following applies: 50 mM Hepes, 150 mM NaCl, pH 7.0, 37 °C. The test is classed as biochemical.

As a reminder, the % inhibition is the percentage by which the read-out fell short of the control. Lower therefore signals little suppression. What is called inhibition is the drop in the measured response relative to a control, in per cent.

With `[O]=[V]([OH])([OH])[OH]` [sodium orthovanadate], on TbPTP1 [1], the “% inhibition at 1 mM” value is on record as 90%. Regarding `CCc1oc2cc(S(=O)(=O)Nc3ccc(S(=O)(=O)Nc4nccs4)cc3)ccc2c1C(=O)c1cc(Br)c(O)c(Br)c1` [BZ3, 3-(3,5-Dibromo-4-hydroxy-benzoyl)-2-ethyl-benzofuran-6-sulfonicacid-(4-(thiazol-2-ylsulfamyl)-phenyl)-amide], at TbPTP1 [2], the inhibition at 10 µM is above 50%. Consider `N[C@@H](COP(=O)(O)O)C(=O)O` [pSer], for which, on TbPTP1 [3], the Km entry was “phospho-Tyr (pTyr), and phospho-Ser (pSer)”.
